Measurements: paper PMC6138237, “Machine intelligence decrypts β-lapachone as an allosteric 5-lipoxygenase inhibitor” (Chemical Science, 2018)
Where two headings read alike, the source gives them in different places.

Assays:
Format in all cases: biochemical
[1] = molecular target: EphA2 (Homo sapiens, UniProt P29317); experiment: ExpresS Diversity Kinase Profile, Cerep (LANCE): EphA2
[2] = molecular target: RAF-1 (Homo sapiens, UniProt P04049); experiment: ExpresS Diversity Kinase Profile, Cerep (LANCE): RAF-1; settings: for inhibition at 150 µM: RAF-1
[3] = molecular target: Akt1/PKBα (Homo sapiens, UniProt P31749); experiment: ExpresS Diversity Kinase Profile, Cerep (LANCE): Akt1/PKBα; settings: for inhibition at 150 µM: Akt1/PKBα, Flag: Interference
[4] = molecular target: PAK2 (Homo sapiens, UniProt Q13177); experiment: ExpresS Diversity Kinase Profile, Cerep (LANCE): PAK2
[5] = molecular target: VEGFR2 (Homo sapiens, UniProt P35968); experiment: ExpresS Diversity Kinase Profile, Cerep (LANCE): VEGFR2
[6] = molecular target: T1, CHK1 (Homo sapiens, UniProt O14757); experiment: ExpresS Diversity Kinase Profile, Cerep (LANCE): CHK1
T1 sequence (O14757 1-476): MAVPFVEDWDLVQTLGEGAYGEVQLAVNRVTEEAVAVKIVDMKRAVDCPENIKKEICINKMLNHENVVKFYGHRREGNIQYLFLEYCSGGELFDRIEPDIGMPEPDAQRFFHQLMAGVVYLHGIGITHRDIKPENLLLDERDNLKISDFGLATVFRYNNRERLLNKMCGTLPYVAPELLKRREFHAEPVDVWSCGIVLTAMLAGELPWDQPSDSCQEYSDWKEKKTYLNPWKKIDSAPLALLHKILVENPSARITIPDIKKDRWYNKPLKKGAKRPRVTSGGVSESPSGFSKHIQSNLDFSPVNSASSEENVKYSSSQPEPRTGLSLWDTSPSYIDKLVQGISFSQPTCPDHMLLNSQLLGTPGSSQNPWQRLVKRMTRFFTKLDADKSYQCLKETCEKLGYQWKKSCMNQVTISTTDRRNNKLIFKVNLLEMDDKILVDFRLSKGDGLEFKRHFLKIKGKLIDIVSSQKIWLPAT

[7] = molecular target: CDK1 (Homo sapiens, UniProt P06493); experiment: ExpresS Diversity Kinase Profile, Cerep (LANCE): CDK1
[8] = molecular target: T2, SGK1 (Homo sapiens, UniProt O00141); experiment: ExpresS Diversity Kinase Profile, Cerep (LANCE): SGK1
T2 sequence (O00141 1-431): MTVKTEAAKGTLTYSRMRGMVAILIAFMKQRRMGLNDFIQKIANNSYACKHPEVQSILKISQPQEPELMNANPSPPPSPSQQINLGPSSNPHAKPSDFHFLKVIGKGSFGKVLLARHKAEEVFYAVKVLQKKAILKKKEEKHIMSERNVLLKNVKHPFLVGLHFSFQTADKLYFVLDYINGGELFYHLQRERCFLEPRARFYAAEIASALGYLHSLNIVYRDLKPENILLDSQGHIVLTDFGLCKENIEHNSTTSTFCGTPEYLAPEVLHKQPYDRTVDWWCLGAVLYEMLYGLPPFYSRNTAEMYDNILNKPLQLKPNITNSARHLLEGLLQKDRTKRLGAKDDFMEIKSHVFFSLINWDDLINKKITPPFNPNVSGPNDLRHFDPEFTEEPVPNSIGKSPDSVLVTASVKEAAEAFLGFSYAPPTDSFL

[9] = molecular target: MARK1 (Homo sapiens, UniProt Q9P0L2); experiment: ExpresS Diversity Kinase Profile, Cerep (LANCE): MARK1
[10] = molecular target: T3, IRAK4 (Homo sapiens, UniProt Q9NWZ3); experiment: ExpresS Diversity Kinase Profile, Cerep (LANCE): IRAK4
T3 sequence (Q9NWZ3 1-460): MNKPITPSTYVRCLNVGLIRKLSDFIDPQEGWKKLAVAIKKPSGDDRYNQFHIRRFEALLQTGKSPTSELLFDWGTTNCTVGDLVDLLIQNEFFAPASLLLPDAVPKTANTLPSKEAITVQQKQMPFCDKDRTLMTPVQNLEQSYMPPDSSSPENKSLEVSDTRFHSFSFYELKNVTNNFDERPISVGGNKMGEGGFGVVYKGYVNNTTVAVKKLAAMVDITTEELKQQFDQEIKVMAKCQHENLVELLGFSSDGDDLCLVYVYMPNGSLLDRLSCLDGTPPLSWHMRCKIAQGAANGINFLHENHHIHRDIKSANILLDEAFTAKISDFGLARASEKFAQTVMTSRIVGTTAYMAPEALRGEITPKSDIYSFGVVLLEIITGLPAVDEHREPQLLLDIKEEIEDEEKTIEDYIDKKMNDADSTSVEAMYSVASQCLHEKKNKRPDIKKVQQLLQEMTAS

[11] = molecular target: PKA (Homo sapiens, UniProt P17612); experiment: ExpresS Diversity Kinase Profile, Cerep (LANCE): PKA
[12] = Flag: Interference, read-out: % Inhibition of control values, 1st measurement
[13] = Flag: Interference, read-out: % Inhibition of control values, 2nd measurement
[14] = n = 2, Flag: Interference, read-out: % Inhibition of control values, Mean
[15] = n = 2, read-out: % Inhibition of control values, Mean
[16] = read-out: % Inhibition of control values, 1st measurement
[17] = read-out: % Inhibition of control values, 2nd measurement

Sequence of MARK1 (Q9P0L2 whole entry): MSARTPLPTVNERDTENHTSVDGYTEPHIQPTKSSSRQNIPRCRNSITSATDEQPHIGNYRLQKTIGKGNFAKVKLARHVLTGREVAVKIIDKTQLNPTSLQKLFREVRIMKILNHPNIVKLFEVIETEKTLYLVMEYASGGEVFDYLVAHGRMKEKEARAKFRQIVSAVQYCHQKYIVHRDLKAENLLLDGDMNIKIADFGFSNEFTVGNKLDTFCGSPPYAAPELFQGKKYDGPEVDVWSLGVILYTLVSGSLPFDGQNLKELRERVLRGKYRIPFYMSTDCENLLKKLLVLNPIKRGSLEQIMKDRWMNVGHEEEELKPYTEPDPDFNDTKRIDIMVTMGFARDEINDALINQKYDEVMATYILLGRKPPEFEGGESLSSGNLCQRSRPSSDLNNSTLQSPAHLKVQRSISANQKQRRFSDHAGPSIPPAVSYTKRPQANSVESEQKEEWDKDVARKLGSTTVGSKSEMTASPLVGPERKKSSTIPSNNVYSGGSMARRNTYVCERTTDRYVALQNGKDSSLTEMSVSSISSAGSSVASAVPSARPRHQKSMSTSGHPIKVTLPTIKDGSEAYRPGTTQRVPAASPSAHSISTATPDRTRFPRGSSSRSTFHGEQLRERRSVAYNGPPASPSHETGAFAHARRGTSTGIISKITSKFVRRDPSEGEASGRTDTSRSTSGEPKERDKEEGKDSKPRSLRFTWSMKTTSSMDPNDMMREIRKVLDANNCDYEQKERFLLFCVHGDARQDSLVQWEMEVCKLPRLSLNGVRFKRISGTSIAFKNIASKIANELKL
Sequence of EphA2 (P29317 24-976): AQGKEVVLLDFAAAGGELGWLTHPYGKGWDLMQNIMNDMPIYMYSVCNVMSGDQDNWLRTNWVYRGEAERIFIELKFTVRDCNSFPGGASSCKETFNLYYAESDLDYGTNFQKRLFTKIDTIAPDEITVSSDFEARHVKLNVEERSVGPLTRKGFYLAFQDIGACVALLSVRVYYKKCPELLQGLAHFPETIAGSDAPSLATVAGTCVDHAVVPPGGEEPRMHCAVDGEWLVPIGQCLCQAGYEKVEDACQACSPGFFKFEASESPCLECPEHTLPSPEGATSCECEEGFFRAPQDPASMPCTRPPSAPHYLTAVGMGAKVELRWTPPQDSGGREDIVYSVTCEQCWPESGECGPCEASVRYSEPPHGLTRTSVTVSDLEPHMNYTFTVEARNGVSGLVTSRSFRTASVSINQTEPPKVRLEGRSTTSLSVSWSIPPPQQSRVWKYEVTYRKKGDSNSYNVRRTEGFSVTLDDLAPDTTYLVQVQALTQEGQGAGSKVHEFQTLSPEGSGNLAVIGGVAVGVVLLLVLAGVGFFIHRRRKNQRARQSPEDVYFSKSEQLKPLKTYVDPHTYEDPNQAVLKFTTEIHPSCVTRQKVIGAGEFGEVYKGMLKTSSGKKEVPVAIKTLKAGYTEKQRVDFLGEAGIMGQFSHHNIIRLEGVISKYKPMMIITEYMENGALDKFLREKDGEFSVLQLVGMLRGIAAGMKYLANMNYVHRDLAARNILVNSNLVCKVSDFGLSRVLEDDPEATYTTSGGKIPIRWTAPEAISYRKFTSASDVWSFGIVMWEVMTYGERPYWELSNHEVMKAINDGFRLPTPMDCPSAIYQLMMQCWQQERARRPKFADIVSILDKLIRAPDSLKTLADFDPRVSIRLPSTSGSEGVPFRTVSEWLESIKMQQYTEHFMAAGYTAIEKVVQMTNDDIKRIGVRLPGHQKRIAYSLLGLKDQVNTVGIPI
Sequence of PAK2 (Q13177 whole entry): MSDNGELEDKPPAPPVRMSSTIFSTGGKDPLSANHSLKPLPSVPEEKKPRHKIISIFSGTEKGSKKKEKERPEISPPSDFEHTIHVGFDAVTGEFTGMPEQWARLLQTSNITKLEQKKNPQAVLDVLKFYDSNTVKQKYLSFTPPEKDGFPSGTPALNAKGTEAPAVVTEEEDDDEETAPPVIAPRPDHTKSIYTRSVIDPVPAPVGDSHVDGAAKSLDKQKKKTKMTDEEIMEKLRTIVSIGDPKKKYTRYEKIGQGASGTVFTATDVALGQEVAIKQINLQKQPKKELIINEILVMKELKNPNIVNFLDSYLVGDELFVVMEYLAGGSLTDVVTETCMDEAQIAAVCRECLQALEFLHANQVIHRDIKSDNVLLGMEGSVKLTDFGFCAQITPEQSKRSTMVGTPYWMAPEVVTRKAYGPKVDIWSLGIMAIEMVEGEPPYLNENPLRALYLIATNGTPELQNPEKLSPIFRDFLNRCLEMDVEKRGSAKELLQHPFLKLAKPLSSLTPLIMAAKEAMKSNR
Sequence of RAF-1 (P04049 whole entry): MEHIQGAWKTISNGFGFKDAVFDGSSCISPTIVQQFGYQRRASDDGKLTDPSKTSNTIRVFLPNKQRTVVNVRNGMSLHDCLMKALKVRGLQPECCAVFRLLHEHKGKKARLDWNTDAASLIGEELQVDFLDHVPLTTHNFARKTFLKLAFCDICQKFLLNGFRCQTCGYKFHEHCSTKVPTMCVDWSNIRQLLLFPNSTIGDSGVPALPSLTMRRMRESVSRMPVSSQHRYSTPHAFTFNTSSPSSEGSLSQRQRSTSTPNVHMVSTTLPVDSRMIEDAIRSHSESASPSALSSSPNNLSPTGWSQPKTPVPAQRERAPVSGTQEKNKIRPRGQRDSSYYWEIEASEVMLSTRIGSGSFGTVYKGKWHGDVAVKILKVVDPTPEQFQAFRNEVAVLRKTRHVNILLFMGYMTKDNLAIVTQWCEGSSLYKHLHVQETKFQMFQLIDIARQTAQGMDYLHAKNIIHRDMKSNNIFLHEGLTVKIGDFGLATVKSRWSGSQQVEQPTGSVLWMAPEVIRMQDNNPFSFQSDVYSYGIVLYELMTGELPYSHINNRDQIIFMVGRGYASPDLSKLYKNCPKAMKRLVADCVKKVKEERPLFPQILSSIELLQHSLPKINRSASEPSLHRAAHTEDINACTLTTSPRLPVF
Sequence of VEGFR2 (P35968 20-1356): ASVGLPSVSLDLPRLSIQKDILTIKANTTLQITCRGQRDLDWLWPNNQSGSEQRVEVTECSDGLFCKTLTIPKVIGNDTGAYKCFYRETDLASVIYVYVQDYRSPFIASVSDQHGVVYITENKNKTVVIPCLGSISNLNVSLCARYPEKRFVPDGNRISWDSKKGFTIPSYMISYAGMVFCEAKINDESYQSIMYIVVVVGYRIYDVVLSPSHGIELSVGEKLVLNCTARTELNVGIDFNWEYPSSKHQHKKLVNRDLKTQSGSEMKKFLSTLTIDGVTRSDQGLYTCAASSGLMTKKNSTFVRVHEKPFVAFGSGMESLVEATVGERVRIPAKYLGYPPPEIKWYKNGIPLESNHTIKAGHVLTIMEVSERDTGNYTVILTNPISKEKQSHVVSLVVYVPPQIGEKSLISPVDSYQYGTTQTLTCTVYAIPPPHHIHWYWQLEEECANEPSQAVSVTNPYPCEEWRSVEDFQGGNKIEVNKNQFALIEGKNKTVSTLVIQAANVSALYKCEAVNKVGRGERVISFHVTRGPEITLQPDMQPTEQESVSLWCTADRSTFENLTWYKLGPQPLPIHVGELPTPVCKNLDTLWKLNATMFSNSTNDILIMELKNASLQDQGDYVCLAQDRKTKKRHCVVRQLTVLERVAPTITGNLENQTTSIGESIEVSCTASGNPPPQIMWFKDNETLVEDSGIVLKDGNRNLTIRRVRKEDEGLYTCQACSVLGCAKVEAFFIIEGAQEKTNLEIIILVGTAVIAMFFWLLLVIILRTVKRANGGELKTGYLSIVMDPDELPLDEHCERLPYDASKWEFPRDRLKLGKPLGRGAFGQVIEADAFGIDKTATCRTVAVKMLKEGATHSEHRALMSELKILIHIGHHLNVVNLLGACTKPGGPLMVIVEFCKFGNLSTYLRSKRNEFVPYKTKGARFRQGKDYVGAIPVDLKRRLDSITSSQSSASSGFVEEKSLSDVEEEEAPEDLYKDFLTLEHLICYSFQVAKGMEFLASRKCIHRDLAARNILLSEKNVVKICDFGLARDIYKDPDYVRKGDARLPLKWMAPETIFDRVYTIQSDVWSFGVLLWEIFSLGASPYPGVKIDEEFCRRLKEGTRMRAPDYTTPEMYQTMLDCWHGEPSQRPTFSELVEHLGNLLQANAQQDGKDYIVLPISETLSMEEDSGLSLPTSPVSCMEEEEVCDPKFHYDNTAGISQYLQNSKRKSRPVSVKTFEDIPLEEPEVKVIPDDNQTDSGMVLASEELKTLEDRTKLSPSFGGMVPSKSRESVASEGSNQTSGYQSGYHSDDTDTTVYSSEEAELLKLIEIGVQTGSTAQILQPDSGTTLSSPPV
Sequence of CDK1 (P06493 whole entry): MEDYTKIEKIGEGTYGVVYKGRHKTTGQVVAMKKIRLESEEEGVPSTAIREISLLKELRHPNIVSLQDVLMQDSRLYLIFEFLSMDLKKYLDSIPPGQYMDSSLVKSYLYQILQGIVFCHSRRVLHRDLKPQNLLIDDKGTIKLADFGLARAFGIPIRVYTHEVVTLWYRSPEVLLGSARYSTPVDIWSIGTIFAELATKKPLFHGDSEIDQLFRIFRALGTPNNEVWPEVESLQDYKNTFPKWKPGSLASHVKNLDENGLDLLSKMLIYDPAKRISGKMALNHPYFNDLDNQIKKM
Sequence of CDK1 (P14635 whole entry partner): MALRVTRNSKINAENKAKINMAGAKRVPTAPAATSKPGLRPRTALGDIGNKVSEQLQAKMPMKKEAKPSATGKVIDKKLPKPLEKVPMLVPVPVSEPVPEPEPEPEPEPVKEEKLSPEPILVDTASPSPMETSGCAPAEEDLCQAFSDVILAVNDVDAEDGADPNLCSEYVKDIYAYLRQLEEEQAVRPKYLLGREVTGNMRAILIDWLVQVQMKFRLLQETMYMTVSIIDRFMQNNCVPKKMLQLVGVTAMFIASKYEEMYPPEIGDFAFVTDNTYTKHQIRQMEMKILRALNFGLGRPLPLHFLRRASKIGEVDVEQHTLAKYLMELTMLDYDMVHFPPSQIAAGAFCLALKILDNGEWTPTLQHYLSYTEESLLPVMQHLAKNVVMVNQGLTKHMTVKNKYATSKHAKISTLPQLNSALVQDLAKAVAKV

## CN[C@@H]1C[C@H]2O[C@@](C)([C@@H]1OC)n1c3ccccc3c3c4c(c5c6ccccc6n2c5c31)C(=O)NC4 [Staurosporine, reference compound]
[1]; control
  nHill: 1.6
[2]; RAF1, control
  nHill: 2.4
[3]; Akt/PKBα, control
  nHill: 0.8
[4]; control
  nHill: > 3
[5]; control
  nHill: 1.2
[6]; control
  nHill: 1.5
[7]; control
  nHill: 1.1
[8]; control
  nHill: > 3
[9]; control
  nHill: 2.5
[10]; control
  nHill: 0.7
[11]; control
  nHill: > 3

## CC1(C)CCC2=C(O1)c1ccccc1C(=O)C2=O [β-Lapachone]
[1]; [12]
  inhibition at 150 µM: 63.7%
[1]; [13]
  inhibition at 150 µM: 63.5%
[1]; [14]
  inhibition at 150 µM: 63.6%
[2]; [15]
  inhibition at 150 µM: 57.3%
[2]; [16]
  inhibition at 150 µM: 55.4%
[2]; [17]
  inhibition at 150 µM: 59.3%
[3]; [16]
  inhibition at 150 µM: 65.8%
[3]; [17]
  inhibition at 150 µM: 55%
[3]; [15]
  inhibition at 150 µM: 60.4%
[4]; [12]
  inhibition at 150 µM: -34%
[4]; [13]
  inhibition at 150 µM: 1.5%
[4]; [14]
  inhibition at 150 µM: -16.2%
[5]; [15]
  inhibition at 150 µM: 82.3%
[5]; [16]
  inhibition at 150 µM: 82.7%
[5]; [17]
  inhibition at 150 µM: 82%
[6]; [12]
  inhibition at 150 µM: 9.4%
[6]; [13]
  inhibition at 150 µM: 19.7%
[6]; [14]
  inhibition at 150 µM: 14.5%
[7]; [12]
  inhibition at 150 µM: 66%
[7]; [13]
  inhibition at 150 µM: 68%
[7]; [14]
  inhibition at 150 µM: 67%
[8]; [15]
  inhibition at 150 µM: 54.5%
[8]; [16]
  inhibition at 150 µM: 54.4%
[8]; [17]
  inhibition at 150 µM: 54.5%
[9]; [15]
  inhibition at 150 µM: -57.4%
[9]; [16]
  inhibition at 150 µM: -70.1%
[9]; [17]
  inhibition at 150 µM: -44.7%
[10]; [15]
  inhibition at 150 µM: 2.2%
[10]; [16]
  inhibition at 150 µM: -1.2%
[10]; [17]
  inhibition at 150 µM: 5.6%
[11]; [12]
  inhibition at 150 µM: -10.5%
[11]; [13]
  inhibition at 150 µM: -5.4%
[11]; [14]
  inhibition at 150 µM: -8%
